In patent publication US12005051B2, “Topical roflumilast formulation having improved delivery and plasma half life” (ARCUTIS BIOTHERAPEUTICS, inc., priority 2017, dated 2024):
Like-named read-outs stand apart in the source and are kept apart here.

Columns and labels:
[1] = set-up: species or system human; conditions: in vivo
Procedure: A parallel group, double blind, vehicle-controlled study was performed in which ARQ-151 cream 0.3% (Formulation 3 in Example 5) or ARQ-151 cream 0.15% (Formulation 7) or vehicle cream is applied QD for 84 days to subjects with chronic plaque psoriasis involving between 2 and 20% body surface area (BSA).
A total of approximately 300 subjects were enrolled at approximately 30 study sites in the United States and Canada. Subjects were adult (≥18 y/o) males or females with chronic plaque psoriasis. […] Subjects with an IGA of ‘Mild’ (2) were limited to 20% of total enrollment. Subjects with an IGA of ‘Severe’ (4) were limited to 15% of total enrollment. Subjects had at least 2% and no more than 20% Body Surface Area (BSA) of chronic plaque psoriasis. All psoriasis lesions on a subject were treated including the face, trunk, genitals/skin folds, or limbs (excluding the scalp). The palms and soles were treated but were not counted towards any measurements of efficacy (IGA, BSA, mPASI). For subjects with intertriginous area involvement, and with severity of the intertriginous area lesions at least ‘mild’ (IGA≥2) at Baseline, ‘I-IGA’ score was recorded at weeks 4, 6, 8 and 12. The same IGA used for the primary endpoint (whole body) was also used for ‘intertriginous area lesion IGA score’ (I-IGA), but only intertriginous areas were evaluated for I-IGA, not the rest of the body.
(§1) Blood samples were taken from all subjects at all sites as pre-dose on Day 1 (baseline) and Weeks 4 (Day 29) and 12 (Day 85). The analysis of the PK data collected was performed with a CFR 21 Part 11 compliant software package (Phoenix WinNonlin version 8.1) which is in full compliance with ICH-GCP. Samples from all subjects within the PK population were evaluated. Any subject or data excluded from the PK analysis were identified, along with the reason for exclusion in this PK report. BSA was averaged based on Baseline, Week 2, Week 4, Week 6 and Week 8 measured BSA values, the screening values, Week 12 and Week 16 values, and any other unscheduled visit values were excluded. Four subjects participated in an optional phase at the completion of the study to assess the elimination of roflumilast and the N-oxide at the end of treatment, however only three had quantifiable concentrations of roflumilast and the N-oxide. From the three subjects, the terminal rate constant (lambda z, λz) was determined by the slope of the regression line of the natural log transformed concentrations vs. time data. The terminal half-life (t½) was calculated as: In(2)/λz.
(§2) Concentration values that are reported BLQ (<0.100 for roflumilast and N-oxide) were reported as below limit of quantification (BLQ) in the concentration data listings and considered non-numerical. Nonnumerical values were ignored in the concentration by nominal time summary statistics. Summary statistics (i.e. N, arithmetic mean, SD, CV %, minimum, median, maximum, geometric mean, geometric SD, 95% confidence intervals for both the arithmetic mean and geometric mean) were calculated for plasma concentrations for each analyte, nominal day and dose strength. All concentration and descriptive statistic values were reported to three significant figures.

[2] = optional elimination phase assessment at end of treatment with ARQ-151 cream in psoriasis; assay type: in vivo, human; conditions: for half-life: human, plasma
Procedure: as §1, §2

clinical = conditions: human, in vivo, po
Procedure: In addition to the consistent delivery of a suspended active ingredient from a topical product, successful treatment also depends on the elimination kinetics of the active ingredient. After a drug is absorbed into a patient's body, elimination begins thereby reducing the concentration over time. The half-life determines the length of time that the drug will be effective. […] Since the maximum plasma concentration (11.4 ng roflumilast per mL plasma) occurs for roflumilast about 1 hour after oral dosing, mean plasma concentration at the time of the first missed dose (1 day after the most recent dose) will be approximately 5.7 ng/mL (half the 11.4 ng/mL maximum plasma concentration). […] For oral roflumilast, use of a sustained release oral drug delivery system instead of the immediate release tablet studied by Huang, would be an example of extrinsic PK property modification to increase the adherence imperfection forgiveness of the product that would benefit the patient that missed one or more doses of roflumilast.

[3] = roflumilast crystal size by polarized light microscopy, dry and after six weeks storage in solvent blends; assay type: physicochemical; conditions: for crystal width: six weeks at room temperature
[4] = dissolution of roflumilast in solvents and solvent:water blends at 25° C.; assay type: physicochemical
Procedure: (§3) 0.0092 grams of roflumilast (Batch A14367P from Interquim S.A.) was weighed into a liquid scintillation vial. An equimolar blend of hexylene glycol (lot 1AC0818, Spectrum) and distilled water was added dropwise with mixing to the vial containing roflumilast to produce a suspension of roflumilast in excess of the solubility limit. An equimolar blend is 86.7% hexylene glycol and 13.3% water on a weight/weight percent basis. After mixing each addition of hexylene glycol:water blend, the tightly capped vial was returned to a water bath set at 25° C. It required 0.7962 grams of equimolar Hexylene Glycol:Water blend to completely dissolve the 0.0092 grams of roflumilast and give a 1.14% roflumilast in equimolar Hexylene Glycol:Water (wt/wt %) solution. 0.0064 grams of roflumilast was added to this sample (labeled 12-3) to form a finely dispersed suspension at 25° C. and the vial was then stored undisturbed at about 15-18° C., protected from the light for six weeks. A sample of the roflumilast crystals was removed from the vial, placed on a microscope slide (with coverslip) and then examined using polarized light microscopy using a 10× objective (FIG. 2, microscope sample 20-3).
0.0111 grams of roflumilast (Batch A14367P from Interquim S.A.) was weighed into a liquid scintillation vial. An equimolar blend of […] (Transcutol P, lot 146063, Gattefosse) and distilled water was added dropwise with mixing to the vial containing roflumilast to produce a suspension of roflumilast in excess of the solubility limit. An equimolar blend is 88.3% DEGEE and 11.7% water on a weight/weight percent basis. After mixing each addition of DEGEE:water blend, the tightly capped vial was returned to a water bath set at 25° C. It required 0.2477 grams of equimolar DEGEE:Water blend to completely dissolve the 0.0111 grams of roflumilast and give a 4.29% roflumilast in equimolar DEGEE:Water (wt/wt %) solution. This sample (labeled 13-1) was a solution of roflumilast at 25° C. and the vial was then stored undisturbed at about 15-18° C., protected from the light for six weeks. Roflumilast crystals precipitated due to the cooler storage temperature. A sample of the roflumilast crystals was removed from the vial, placed on a microscope slide (with coverslip) and then examined using polarized light microscopy using a 10× objective (FIG. 3, microscope sample 20-2).
as §3, with “4×” for “10×”, “4,” for “2,”
0.0180 grams of roflumilast (Batch A14367P from Interquim S.A.) was weighed into a liquid scintillation vial. Polyethylene glycol 400 (lot 1 DE0880, Spectrum) was added dropwise with mixing to the vial containing roflumilast to produce a suspension of roflumilast in excess of the solubility limit. After mixing each addition of polyethylene glycol 400, the tightly capped vial was returned to a water bath set at 25° C. […]

[5] = cited from earlier work; for mean plasma half-life: multiple 0.375 mg doses, immediate release oral roflumilast
[6] = cited from earlier work

## O=C(Nc1c(Cl)c[n+]([O-])cc1Cl)c1ccc(OC(F)F)c(OCC2CC2)c1 [roflumilast N-oxide]
[1]
  mean N-oxide pre-dose plasma concentration relative to parent pre-dose plasma concentration: 5.3-6.2 fold
  mean pre-dose plasma concentration, Day 29 versus Day 85: ≤ 2 fold
[2]; three subjects, end of treatment, topical ARQ-151
  Half-life values: around 3.6 days

## O=C(Nc1c(Cl)cncc1Cl)c1ccc(OC(F)F)c(OCC2CC2)c1 [roflumilast, N-(3,5-dichloropyrid-4-yl)-3-cyclopropylmethoxy-4-difluoromethoxybenzamid-e]
clinical
  concentration at 1 day: ~5.7 ng/mL
  concentration at 2 days: ~2.8 ng/mL
  concentration at 72 hours: ~1.4 ng/mL
[3]; Sample 21-1, HG:NMP:Water (water mole fraction=1.2)
  crystal width: 0.02 mm
[3]; Sample 21-2, equimolar ethanol:water
  crystal width: 0.02 mm
[3]; Sample 21-3, equimolar PEG 400:water
  crystal width: 0.02 mm
[3]; Sample 21-5, equimolar propylene glycol:water
  crystal width: 0.02 mm
[3]; equimolar N-methyl pyrrolidone:water compared to 12:4:3 (wt/wt/wt) hexylene glycol:N-methyl pyrrolidone:water
  roflumilast crystalline growth, comparison: Dramatically greater roflumilast crystalline growth
[4]; 0.28% roflumilast, 88.97% propylene glycol, 10.75% water, initially clear solution, 25° C.
  storage time until fine roflumilast crystals were observed: 105 min
[4]; dimethyl sulfoxide, 25° C.
  roflumilast concentration in solution: 28.5%
[4]; equimolar DEGEE:Water, 25° C.
  roflumilast concentration at complete dissolution: 4.29 wt/wt %
[4]; equimolar Hexylene Glycol:Water, 25° C.
  roflumilast concentration at complete dissolution: 1.14 wt/wt %
[4]; equimolar N-Methyl-2 pyrrolidone:water, 25° C.
  roflumilast concentration completely dissolved: 22.85%
[4]; polyethylene glycol 400, 25° C.
  roflumilast concentration at complete dissolution: 3.18%
[1]; both, human
  mean pre-dose plasma concentration, Day 29 versus Day 85: ≤ 2 fold
[1]; both, human, 29 day
  increase of roflumilast plasma pre-dose concentration between the 2-fold increase in dose strength: about 1.6 fold
[1]; both, human, 85 day
  increase of roflumilast plasma pre-dose concentration between the 2-fold increase in dose strength: about 1.7 fold
[2]; topical or ocular, three subjects, end of treatment, topical ARQ-151, read-out: Half-life values (converted)
  half-life: ~86.4 h
[2]; after topical administration of a formulation with self-emulsifying wax blend of dicetyl phosphate and ceteth-10 phosphate and a solvent, read-out: plasma half-life of roflumilast
  half-life: 81.6 to 88.8 h
[5]
  mean plasma half-life: about 1 day
[5]; mean of 12 subjects
  mean plasma half-life: 25.6 h
[5]; multiple 0.375 mg oral doses
  maximum plasma concentration: 11.4 ng/mL
  time of maximum plasma concentration after oral dosing: about 1 hour
[6]; after intravenous administration in humans
  plasma half-life: about 15 hours
[6]; after oral administration
  plasma half-life: 17 to 30 h
